Data published in patent publication US10780174B2, “Lipid-linked prodrugs” (The University of British Columbia, priority 2015, dated 2020).

Legend:
[1] = Particle size and polydispersity of LNP containing prodrug (dynamic light scattering); assay type: physicochemical; conditions: PDI in brackets; for Particle size (PDI) PC-Chol LNP: LD-DEX prodrug in PC-Chol LNP; for Particle size (PDI) [ionizable LNP]: LD-DEX prodrug in ionizable LNP
Protocol: (§1) Preparation of LNP Systems: PC-Chol LNP systems were prepared by rapidly mixing POPC, cholesterol, lipid-linked prodrug and PEG-DMPE (in molar ratio of 49/39/10/2) dissolved in ethanol with phosphate-buffered saline using a T-junction mixer. Formulations were dialyzed against phosphate-buffered saline to remove residual ethanol and to raise the pH to 7.4. PC-TO and ionizable LNP systems were prepared in the same way except that the lipid compositions for these systems are: POPC, triolein, lipid-linked prodrug and PEG-DSPE (in molar ration of 19/70/10/1), and ionizable lipid, DSPC, cholesterol, lipid-linked prodrug and PEG-DMPE (in molar ration of 40/10/38.5/10/1.5), respectively.
Characterization of LNP: Particle size was determined by dynamic light scattering using a Malvern Zetasizer Nano ZS™ (Malvern, UK) following buffer exchange into phosphate-buffered saline. Number-weighted size and distribution data was used. Lipid concentrations were determined by measuring total cholesterol using the Cholesterol E enzymatic assay kit from Wako Chemicals USA™ (Richmond, Va.). The morphology of LNP formulations containing LD-DEX was analyzed by cryogenic-transmission electron microscopy (cryoTEM) as described previously [Leung et al. (2012)].

[2] = In vitro degradation of lipid-linked prodrugs in LNP, mouse plasma; assay type: in vitro ADME; conditions: LNP; for prodrug cleavage/degradation after 1 h in plasma: 37° C., mouse plasma
Protocol: (§2) Quantitation of prodrugs by HPLC: LD-DEX/DTX were quantified by ultra high-pressure liquid chromatography (UHPLC) using a Waters Acquity™ UPLC system equipped with a photodiode array detector (PDA) and evaporative light scattering (ELS) detector; Empower™ data acquisition software version 3.0 was used (Waters™, USA). Separations were performed using a Waters Acquity™ BEH C18 column (1.7 μm, 2.1×100 mm) at a flow rate of 0.5 ml/min, with mobile phases A and B consisting of methanol/10 mM ammonium bicarbonate (80/20% v/v) and methanol/acetonitrile (80/20% v/v), respectively. The mobile phases were delivered at a programmed linear gradient (45%-80% B in 1 min then to 99% B at 2 min) at a column temperature of 55° C. The analyte was measured by PDA (at a wavelength of 239 nm) and ELS detector against calibration standard curves. For the analysis of LD-DEX/DTX breakdown to active compound, linear gradients of 20/80% to 100/0% (acetonitrile/water, v/v) over 7 min were used.
To determine the biodegradability of the dexamethasone or docetaxel prodrugs (LD-DEX/DTX), 1 mg/mL LNP was incubated in mouse plasma (Cedarlane™, Burlington, Ontario) or PBS supplemented with 10 U of purified esterase (Sigma-Aldrich™, St. […] Post incubation, four volumes of chloroform/methanol (2:1) was added and the mixture was vortex mixed. Samples were centrifuged at 13,000 g for 5 minutes and the upper phase was discarded. The remaining organic phase was dried down under vacuum and the resulting lipid extract was dissolved in methanol/acetonitrile (1:1). Quantity of parent LD-DEX/DTX compound was determined by ultra high pressure liquid chromatography on a Waters Acquity™ H-Class UPLC System™ equipped with a BEH C18 column and a photodiode array detector.

[3] = tested on: IL1β expression in RAW 264.7 mouse macrophage cells; assay: In vitro immune suppression, LPS-treated RAW 264.7 cells, IL1β qRT-PCR; assay type: cell-based; conditions: 2 ng/mL LPS, 4 h
Protocol: RAW 264.7 mouse macrophage cells were seeded at 250,000 cells per mL on 12-well plates and incubated at 37° C. overnight. Lipopolysaccharide (LPS) was dissolved in phosphate buffered saline at a concentration of 2 μg/ml. Cells were treated with lipid nanoparticles containing LD-DEX prodrugs and 2 ng/ml of LPS for 4 hours. This LPS concentration was chosen due to its ability to increase IL1β expression approximately 1000 times as compared to untreated cells. At the end of the incubation period, culture medium was aspirated and cellular RNA was extracted using the Purelink RNA™ extraction kit according to manufacturer's protocol (Life Technologies™, Burlington, ON). The concentration of extracted RNA was determined using a Nanodrop Lite™ (Thermo Fisher™). 1 μg of RNA was converted to cDNA using the High Capacity cDNA Reverse Transcription kit (Life Technologies™, Burlington, ON). In order to validate the sample preparation, a no template control and a negative reverse transcriptase control were included. The cDNA was then quantified using comparative real-time qPCR where the Ct (threshold cycle) values are converted to relative quantity using the 2-ΔΔCT method. The primer-probe sets were designed to bind to cDNA of Interleukin-1β(IL1β). Hypoxanthine-guanine phosphoribosyltransferase (HPRT) was chosen as the endogenous normalizer gene, which is known to maintain consistent levels with varying treatments.

[4] = Prodrug incorporation (entrapment) in lipid nanoparticles, UHPLC; assay type: physicochemical; conditions: for % Entrapment PC-Chol LNP: LD-DEX prodrug in PC-Chol LNP; for % Entrapment [ionizable LNP]: LD-DEX prodrug in ionizable LNP
Protocol: as §1, §2

[5] = tested on: immunostimulatory effects of LNP-CpG (plasma cytokines); assay: In vivo immune suppression by LD-DEX prodrugs, LNP-CpG model; design: species or system C57Bl/6 mice; conditions: mice, i.v., 10 mg/kg of CpG, 2 h post injection
Protocol: 6-8 Weeks old female C57Bl/6 mice (Charles River Laboratories™, Wilmington, Mass.) were injected intravenously with lipid nanoparticles containing CpG DNA oligonucleotides (10 mg/kg), mRNA (3 mg/kg) or plasmid DNA (pDNA) (1 mg/kg). Animals were euthanized 2 hours post-injection and blood was collected via intracardiac or saphenous sampling. Plasma was separated from whole blood by centrifugation and analyzed for proinflammatory cytokines using the Mesoscale Proinflammatory Multiplex™ kit (Rockville, Md.) according to manufacturer's instruction. All procedures were approved by the Animal Care Committee at the University of British Columbia and were performed in accordance with guidelines established by the Canadian Council on Animal Care.

[6] = In vitro dissociation of lipid-linked prodrugs from LNP in human plasma; assay type: in vitro ADME; conditions: human plasma over 24 h, 37° C., PC-Chol LNP or ionizable LNP
Protocol: LNP were incubated for 0, 3, 5 and 24 h at 37° C. in 400 μL of sterile human plasma (Cedarlane™, Burlington, Ontario) at a final lipid concentration of 1.2 mM. At the various time-points, samples were loaded onto a 1.5×27 cm Sepharose CL-4B column (Sigma-Aldrich™, St. Louis, Mo.). 30×2 mL fractions were collected. Three volumes of methanol/acetonitrile (1:1) were added to each fraction and analyzed by UHPLC to determine the residual LD-DEX/DTX as described above.

[7] = tested on: OVCAR3 cells; assay: In vitro growth inhibition by LD-DTX prodrugs, cell viability assay; assay type: cell-based; conditions: Homo sapiens, OVCAR-3, 48 h, Ovcar3 cells
Protocol: OVCAR3 cells were obtained from ATCC (Manassas, Va.). Cells were seeded at 12,000 cells per well on 96-well plates and treated with free docetaxel, prodrugs, lipid nanoparticle formulations with or without prodrugs at 0 to 15 μM of docetaxel for 48 h. Cell viability was determined by a colorimetric assay, based on the tetrazolium salt MIT (3-(4,5-dimethylthiazol-2-yl)-2,5-diphenyltetrazolium bromide), as described previously [Mossman 1983].

[8] = tested on: purified porcine esterase; assay: In vitro degradation of lipid-linked prodrugs in LNP, purified esterase in PBS; conditions: LNP, 24 h incubation

Structure (SMILES) | Particle size (PDI) PC-Chol LNP [1] | Particle size (PDI) [ionizable LNP] [1] | prodrug cleavage/degradation after 1 h in plasma [2] | IL1β expression versus control LNP without prodrug [3] | % Entrapment PC-Chol LNP [4] [%] | % Entrapment [ionizable LNP] [4] | plasma TNFα and KC/GRO levels versus control LNP-CpG [5] | plasma cytokine (TNFα, IL-6 and IL-10) levels versus control LNP-CpG [5] | release of active drug (UPLC chromatogram) in mouse plasma ([2]; 24 h incubation) | prodrug dissociation rate from LNP [6] | prodrug dissociation rate from LNP ([6]; listed as LD18) | IC50 ([7]; Free drugs) [nM] | IC50 ([7]; PC-Chol LNP) [nM] | IC50 ([7]; PC-TO LNP) [nM] | IC50 ([7]; ionizable LNP) [nM] | release of active drug (UPLC chromatogram) in purified esterase [8]
CCCCC/C=C\C/C=C\CCCCCCCCOCCCCSCC(=O)[C@@]1(O)[C@H](C)C[C@H]2[C@@H]3CCC4=CC(=O)C=C[C@]4(C)[C@@]3(F)[C@@H](O)C[C@@]21C [LD07-DEX, (8S,9R,10S,11S,13S,14S,16R,17R)-9-fluoro-11,17-dihydroxy-10,13,16-trimethyl-17-(2-((4-(linoleyloxy)butyl)thio)acetyl)-6,7,8,9,10,11,12,13,14,15,16,17-dodecahydro-3H-cyclopenta[a]phenanthren-3-one] | 56 (0.03) nm | [47 (0.04)] nm | no degradation | IL1β expression at a similar level to control | 90 | [88] % | did not exhibit any immunosuppressive effects | – | – | – | – | – | – | – | – | –
CCCCCCCC/C=C\CCCCCCCCOC(=O)CCC(=O)OCC(=O)[C@@]1(O)[C@H](C)C[C@H]2[C@@H]3CCC4=CC(=O)C=C[C@]4(C)[C@@]3(F)[C@@H](O)C[C@@]21C [LD13-DEX, oleyl 2-((8S,9R,10S,11S,13S,14S,16R,17R)-9-fluoro-11,17-dihydroxy-10,13,16-trimethyl-3-oxo-6,7,8,9,10,11,12,13,14,15,16,17-dodecahydro-3H-cyclopenta[a]phenanthren-17-yl)-2-oxoethyl succinate] | 61 (0.03) nm | [49 (0.07)] nm | partially degraded | able to reduce IL1β expression | 100 | [96] % | – | able to suppress plasma cytokine | – | – | – | – | – | – | – | –
CCCCCCCCCCCCCCCCOC(=O)CCC(=O)OCC(=O)[C@@]1(O)[C@H](C)C[C@H]2[C@@H]3CCC4=CC(=O)C=C[C@]4(C)[C@@]3(F)[C@@H](O)C[C@@]21C [LD14-DEX, palmityl 2-((8S,9R,10S,11S,13S,14S,16R,17R)-9-fluoro-11,17-dihydroxy-10,13,16-trimethyl-3-oxo-6,7,8,9,10,11,12,13,14,15,16,17-dodecahydro-3H-cyclopenta[a]phenanthren-17-yl)-2-oxoethyl succinate] | 67 (0.05) nm | [47 (0.06)] nm | partially degraded | able to reduce IL1β expression | 100 | [95] % | – | able to suppress plasma cytokine | – | – | – | – | – | – | – | –
CCCCCCCCCCCCCC(=O)OCC(COC(=O)CCC(=O)OCC(=O)[C@@]1(O)[C@H](C)C[C@H]2[C@@H]3CCC4=CC(=O)C=C[C@]4(C)[C@@]3(F)[C@@H](O)C[C@@]21C)OC(=O)CCCCCCCCCCCCC (stereo partly drawn) [LD17-DEX, 2,3-dimyristroylpropyl (2-((8S,9R,10S,11S,13S,14S,16R,17R)-9-fluoro-11,17-dihydroxy-10,13,16-trimethyl-3-oxo-6,7,8,9,10,11,12,13,14,15,16,17-dodecahydro-3H-cyclopenta[a]phenanthren-17-yl)-2-oxoethyl) succinate] | – | [48 (0.06)] nm | not susceptible to degradation | able to reduce IL1β expression | – | [89] % | – | able to suppress plasma cytokine | – | – | – | – | – | – | – | –
CCCCCCCC/C=C\CCCCCCCCOC(=O)CCC(=O)O[C@@H](C(=O)O[C@H]1C[C@@]2(O)[C@@H](OC(=O)c3ccccc3)[C@@H]3[C@]4(OC(C)=O)CO[C@@H]4C[C@H](O)[C@@]3(C)C(=O)[C@H](O)C(=C1C)C2(C)C)[C@@H](NC(=O)OC(C)(C)C)c1ccccc1 [LD18-DTX, (2R,3S)-1-(((2aR,4S,4aS,6R,9S,11S,12S,12aR,12bS)-12b-acetoxy-12-(benzoyloxy)-4,6,11-trihydroxy-4a,8,13,13-tetramethyl-5-oxo-2a,3,4,4a,5,6,9,10,11,12,12a,12b-dodecahydro-1H-7,11-methanocyclodeca[3,4]benzo[1,2-b]oxet-9-yl)oxy)-3-((tert-butoxycarbonyl)amino)-1-oxo-3-phenylpropan-2-yl(Z)-octadec-9-en-1-ylsuccinate] | – | – | largely not degraded | – | – | – | – | – | active docetaxel (DTX) was observed | dissociated at a faster rate from lipid nanoparticles than LD22-DTX | dissociates from LNP faster than LD22 | 23.9 | 37.3 | 131 | 64 | active docetaxel (DTX) was observed
